“Also recorded” adds a separate entry of the source.
What was measured:
[1] = log D7.4 determination by RP-HPLC, similar to the water/octanol partition coefficient method; assay type: physicochemical; conditions: pH 7.4, RP-HPLC C18, range −1 to +6
Experimental: log D7.4 values were determined by a method similar to the partition coefficient method in a water/octanol mixture and were carried out on an RP-HPLC from Waters Alliance (2795) having a C18 column (2×20 mm) with a gradient of morpholinesulfonic acid buffer (pH 7.4) and acetonitrile. The range was between −1 ([…]) to +6 (lipophilic).

[2] = target: T1, HSA (Homo sapiens, UniProt P02768); test: Fluorescence of NBD and dansyl dyes with increasing HSA (FRET effect, emission maxima); assay type: binding; conditions: for change in fluorescence intensity with increasing HSA concentration: HSA 1.56 to 200 μM, pH 7.4
T1 construct: purchased Sigma Aldrich A1887
T1 sequence (P02768 25-609): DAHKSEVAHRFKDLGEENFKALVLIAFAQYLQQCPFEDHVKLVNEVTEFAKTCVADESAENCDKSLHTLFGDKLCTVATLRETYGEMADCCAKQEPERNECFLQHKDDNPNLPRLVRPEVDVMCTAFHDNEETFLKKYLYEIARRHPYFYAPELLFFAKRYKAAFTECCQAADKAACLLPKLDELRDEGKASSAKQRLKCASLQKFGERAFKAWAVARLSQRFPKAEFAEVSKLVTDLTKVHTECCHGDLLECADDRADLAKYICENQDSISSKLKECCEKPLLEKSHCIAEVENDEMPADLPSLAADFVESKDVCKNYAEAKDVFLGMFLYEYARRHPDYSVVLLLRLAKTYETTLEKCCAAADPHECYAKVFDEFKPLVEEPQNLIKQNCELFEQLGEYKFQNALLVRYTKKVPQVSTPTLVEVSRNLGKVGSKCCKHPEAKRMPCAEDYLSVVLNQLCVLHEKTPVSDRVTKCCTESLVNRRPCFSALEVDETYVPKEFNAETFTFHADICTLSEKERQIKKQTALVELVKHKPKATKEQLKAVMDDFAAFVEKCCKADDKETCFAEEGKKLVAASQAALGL
Experimental: Absorption and fluorescence of fluorescence-labelled derivatives and HSA were carried out in a Varioskan™ microplate reader (Thermo Electron Corporation). 96 well (Costar, half area, flat bottom) microplates were used for absorption measurements and 384 well (Greiner Bio One, small volume, black) microplates from Greiner Bio One were used for fluorescence measurements. All measurements were carried out at pH 7.4 and room temperature.
5.00 ml of a 400 μM solution were prepared from the HSA stock solution. From this solution a geometric dilution series with 7 dilution steps, a dilution factor of 0.5 and a final volume of each concentration of 2.5 ml were prepared.
Defined concentrations of the fluorescence-labelled compounds were selected from the preceding experiment without HSA above and double-concentrated solutions thereof were prepared to take into account the later 1:1 dilution. For each fluorescence-labelled compound (12-17; 19-25) 1.00 ml of these double-concentrations was prepared. 50 μl of the dye solutions were introduced into a 96 well microplate and 50 μl each of the HSA dilution series were added. By mixing the solutions the concentrations of dye derivatives and the HSA solution were halved. The measurements of the absorption and fluorescence were carried out in analogy to the above experimental procedure without HSA.
In analogy to the absorption measurement the effect of HSA on the fluorescence of the dyes (12-17; 19-25) was determined. The same concentrations of NBD and dansyl dyes and the same concentration range for HSA as already described above were used.

[3] = target: T1, HSA; test: Job plot of the fluorescence: stoichiometry of labelled fatty acids to HSA; assay type: binding; conditions: maximum in the curve or none
Experimental: The stoichiometry of NBD- and dansyl-labelled fatty acids bound to HSA was determined by Job plots, also called the “method of continuous variability” as different mole fractions of the respective binding partners are mixed with one another and then measured spectroscopically. Solutions of equimolar concentrations of HSA and dye were mixed such that the mole fractions of the substances were varied but the total molarity of the sample solution stayed constant. For short NBD derivatives C2 to C6 (12-14) no binding to HSA was confirmed, whereas binding ratios for long NBD derivatives C8 to C12 (15-17) to HSA were 1:1. For short dansyl derivatives C2 to C8 (19-22) binding ratios for HSA were 2:1, whereas the long dansyl derivatives C10 and C12 (23-24) bound to HSA in the ratio of 4:1. The finding that even dansyl C2 (19) was bound to HSA led to the question as to what extent the dansyl label itself is recognized by HSA. Because even dansyl methylamide (25) bound to HSA, even though it lacks a carboxyl group, it seems that the dye label could also bind to HSA.
For the Job plot the dye and HSA solutions were employed in equimolar amounts. 10.00 ml of 100 μM HSA solution and in each case 2.00 ml of a 100 μM dye solution (12-17; 19-25) were prepared from the above stock solutions. For the Job plot method the dye solutions were mixed with the HSA solution in different ratios as described below in Table 8. […] According to the same dilution scheme the dye solutions were also mixed with DPBS buffer for measuring the blank values of the fluorescence-labelled derivatives (see K. C. Ingham, Analytical Biochemistry 68 (1975) 660-663). […] Absorption was not measured. A fluorescence measurement without a wavelength scan was also carried out in analogy to the above experiment without HSA.
For NBD derivatives (12-17) and HSA 100 μM solutions were used. […] In total 11 solutions per dye derivative were prepared for fluorescence measurement by mixing the two binding partners. […] The fluorescence intensities were plotted against the mole fractions of the binding partners. […]

[4] = target: T1, HSA; test: Displacement of NBD derivatives on HSA by natural fatty acids C6 to C16 (fluorescence); assay type: binding; conditions: ranking among NBD C8, C10 and C12 from the competition experiments
Experimental: Dilution series for competition experiments with the fatty acids C6 to C16 were diluted with phosphate-buffered saline solution (DPBS buffer). Geometric dilution series of each fatty acid were prepared in 384 well microplates with a starting concentration of 2500 μM and a dilution factor of 0.33 and also 9 dilution steps. The final volume of each concentration was 80 μl. The plated-out fatty acids were stored in the deep freeze (−25° C.) until use.
For displacement experiments 2.50 ml of a 25 μM HSA solution were used per dye derivative. Due to the subsequent dilution steps the HSA concentration was doubled twice such that 2.50 ml of […] solution were prepared.
The dye concentrations were also doubled twice by the following dilution steps. 2.50 ml of each dye solution were needed. 2.10 ml of the respective dye solution were then mixed with 2.10 ml of the 100 μM HSA solution. The respective concentrations of the solutions halve here once. 50 μl of the mixture per well were introduced into a 96 well microplate.
The fatty acid microplates were brought to room temperature and 50 μl each of the dilution series were pipetted into the HSA-dye mixture. The concentrations of all solution constituents were thereby halved once again. In analogy to the experiments measuring the fluorescence of the fluorescence-labelled derivatives without HSA above, the solutions were pipetted from the 96 well microplate into a 384 well microplate. Absorption was not measured. The fluorescence measurement without a wavelength scan was carried out in analogy to the above-referenced experiment.
A concentration of 25 μM and a binding ratio of the NBD derivatives to HSA of 1:1 were employed for the displacement studies. For each dye derivative an NBD-HSA mixture with a concentration of 25 μM was prepared.

[5] = target: T1, HSA; test: Competition of NBD C12 (17) on HSA with ibuprofen and warfarin; assay type: binding; conditions: from competition with warfarin and ibuprofen
Experimental: In analogy to the experiments measuring the fluorescence of the fluorescence-labelled derivatives without HSA above, the solutions were pipetted from the 96 well microplate into a 384 well microplate. […] The fluorescence measurement without a wavelength scan was carried out in analogy to the above-referenced experiment.

[6] = target: T2, amino acid Trp214 of HSA (Homo sapiens, UniProt P02768); test: FRET interactions of NBD C12 (17) with Trp214 of HSA; assay type: binding; conditions: for tryptophan emission intensity of HSA after addition of the dye: emission 330 nm, without dye 170/171 FI
T2 construct: purchased Sigma Aldrich A1887
T2 sequence (P02768 25-609): as above
Experimental: For determining FRET (Förster resonance energy transfer) interactions of NBD C12 (17) with amino acid Trp214 of HSA, concentrations of a dye-HSA mixture according to Table 8 were applied in an amount of 250 μl for each case.
100 μl of mixture 7 were pipetted into a 96 well microplate and a wavelength scan for the absorption in the range from 250 nm to 700 nm was carried out. In each case 15 μl of the residual solutions 1 to 6 were pipetted four times into a black 384 well microplate and emission spectra of the solution in the range from 270 nm to 700 nm were recorded at 290 nm excitation wavelength of the Trp.
For dye NBD C12 (17) the FRET effect between the tryptophan of the HSA and the dye itself was investigated more precisely. The emission spectrum of the amino acid tryptophan overlapped with the absorption spectrum of the NBD dye, because the energy of the donor to be transferred must lie in the region of the possible energy absorption of the acceptor. This is the case when the two spectra overlap. For measurement, both solutions were employed in identical concentrations (25 μM) and the units of the fluorescence intensities (FIrel) and the absorption strength (ODrel) were standardized. An excitation wavelength of 290 nm was utilized for the emission spectrum of tryptophan.
In the next step, different concentrations of NBD C12 (17) were added to the HSA solution until a ratio of NBD to HSA of 1:1 was reached, and the emission spectra were measured.
The efficiency of the energy transfer occurring was calculated using the equation 3.4.
The distance R0, at which a 50% energy exchange takes place, was calculated according to the following equation. Furthermore, by transformation of said equation the real distance r of donor and acceptor was determined.
The fluorescence quantum yield for tryptophan is 0.15.

[7] = dansyl compound 100 μM, λex = 330 nm
[8] = NBD compound 25 μM, λex = 480 nm
[9] = NBD derivatives 25 μM, 480-550 nm
[10] = HSA 25 μM, NBD to HSA up to 1:1, excitation 290 nm

Δλ, shift of emission maximum λem without HSA vs with HSA [2, 7]	change in fluorescence intensity with increasing HSA concentration ([2]; dansyl derivatives 100 μM, 330-560 nm)	binding to HSA (qualitative) [3]	binding to HSA (qualitative) ([3]; listed as dansyl methylamide (25))	SMILES	chromatographic logD [1]	relative binding affinity of the NBD dye for HSA [4]	relative binding affinity of the NBD dye for HSA ([4]; listed as NBD C10)	Δλ, shift of emission maximum λem without HSA vs with HSA [2, 8]	change in fluorescence intensity with increasing HSA concentration [2, 9]	log D7.4 [1]	binding site on HSA [5]	fluorescence of the dye on excitation of tryptophan [6, 10]	tryptophan emission intensity of HSA after addition of the dye [6, 10]	tryptophan emission intensity of HSA after addition of the dye ([6]; HSA 25 μM, NBD to HSA up to 1:1, excitation 290 nm, listed as NBD dye C12 (17))	efficiency of the energy transfer ([6]; calculated from I 82 FI and I0 171 FI)
80 nm	smallest fluorescence increase	binds to HSA	bound to HSA	CNS(=O)(=O)c1cccc2c(N(C)C)cccc12 [DMA (25), 5-Dimethylaminonaphthalene-1-sulfonic acid methylamide]	2.76	–	–	–	–	–	–	–	–	–	–
–	–	–	–	O=C(O)CCCCCCCCCNc1ccc([N+](=O)[O-])c2nonc12 [NBD C10 (16), 10-(7-Nitrobenzo[1,2,5]oxadiazol-4-ylamino)decanoic acid]	2.03	minimally smaller	binding strength which lies between these two	16 nm	increase in fluorescence intensity	–	–	–	–	–	–
–	–	–	–	O=C(O)CCCCCCCCCCCNc1ccc([N+](=O)[O-])c2nonc12 [NBD C12 (17), 12-(7-Nitrobenzo[1,2,5]oxadiazol-4-ylamino)dodecanoic acid]	2.84	greatest binding affinity; also recorded: bounds best	–	16 nm	increase in fluorescence intensity	2.84	neither bound the Sudlow's site I nor the Sudlow's site II	15 FI	82 FI	80 FI	approximately 52%
94 nm	–	bound to HSA	–	CN(C)c1cccc2c(S(=O)(=O)NCC(=O)O)cccc12 [dansyl C2 (19), (5-Dimethylaminonaphthalene-1-sulfonylamino)ethanoic acid]	1.02	–	–	–	–	–	–	–	–	–	–
